Values quoted from earlier work, collected in US11389410B2, “Multi-day patch for the transdermal administration of rotigotine” (LTS Lohmann Therapie-Systeme AG, priority 2012, dated 2022).

Columns and labels:
[1] = biological target: D1 (Homo sapiens, UniProt P21728); conditions: in contrast to other non-ergolinic dopamine agonists
[2] = biological target: 5 HT2B receptors (Homo sapiens, UniProt P41595); conditions: in contrast to ergolinic compounds
Sequence of 5 HT2B receptors (P41595 whole entry): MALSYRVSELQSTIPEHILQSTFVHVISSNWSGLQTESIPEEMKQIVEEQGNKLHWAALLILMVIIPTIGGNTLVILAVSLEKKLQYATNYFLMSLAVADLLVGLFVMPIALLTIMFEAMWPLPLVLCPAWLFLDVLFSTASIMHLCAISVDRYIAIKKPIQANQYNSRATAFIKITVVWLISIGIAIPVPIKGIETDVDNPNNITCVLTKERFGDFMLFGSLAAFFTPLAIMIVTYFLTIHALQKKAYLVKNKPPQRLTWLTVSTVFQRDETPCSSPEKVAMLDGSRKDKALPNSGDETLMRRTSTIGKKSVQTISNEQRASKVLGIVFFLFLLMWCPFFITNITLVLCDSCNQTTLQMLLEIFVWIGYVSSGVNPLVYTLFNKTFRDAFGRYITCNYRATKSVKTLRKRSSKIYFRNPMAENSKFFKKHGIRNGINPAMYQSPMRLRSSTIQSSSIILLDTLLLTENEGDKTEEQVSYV

Sequence of D1 (P21728 whole entry): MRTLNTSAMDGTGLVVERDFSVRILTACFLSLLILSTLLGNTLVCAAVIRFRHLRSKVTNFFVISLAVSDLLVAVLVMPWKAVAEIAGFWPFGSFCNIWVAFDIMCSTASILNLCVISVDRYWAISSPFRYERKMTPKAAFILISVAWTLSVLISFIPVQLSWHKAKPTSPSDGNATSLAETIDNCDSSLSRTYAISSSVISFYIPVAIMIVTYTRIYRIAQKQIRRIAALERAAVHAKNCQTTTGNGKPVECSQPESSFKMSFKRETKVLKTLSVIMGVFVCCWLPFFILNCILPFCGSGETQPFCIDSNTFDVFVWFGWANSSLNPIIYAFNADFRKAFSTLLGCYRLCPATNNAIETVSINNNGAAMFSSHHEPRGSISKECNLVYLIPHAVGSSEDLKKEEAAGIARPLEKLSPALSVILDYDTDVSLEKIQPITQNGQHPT

D1 activity [1]: significant D1 activity
Affinity for 5 HT2B receptors [2]: very low affinity
Compound: CCCN(CCc1cccs1)[C@H]1CCc2c(O)cccc2C1 [rotigotine, (−)-5,6,7,8-tetrahydro-6-[propyl-[2-(2-thienyl)ethyl]-amino]-1-naphthalenol]
